Source: patent publication US20210315476A1, “Depth-independent method for in-vivo drug release monitoring and quantification based on magnetic particle imaging” (The Board of Trustees of the Leland Stanford Junior …, priority 2018, published 2021)

System: MDA-MB-231 tumors
Assay: TUNEL assay for tumor apoptosis
Assay type: in vivo, nude mice
Conditions: tumors harvested 48 h after intratumoral injection, N=3 mice per condition
Method: Furthermore, we evaluated the therapeutic efficacy of Fe3O4@PLGA-DOX to the tumor. Tumor tissues of the orthotopic breast cancer mice were harvested after injection of Fe3O4@PLGA-DOX for 48 h and then sectioned for TUNEL apoptosis assay. […] Meanwhile, the fluorescence signals can also be observed in the tissue section.
MDA-MB-231 tumors on nude mice were harvested and encapsulated in Tissue-Tek® O.C.T. and then frozen. Tumor tissues embedded in were sectioned by cryostat with a thickness of 2 μm for each slice. tissue slices were treated with Click-iT™ Plus TUNEL Assay (Alexa Fluor™ 488 dye) kit for apoptosis detection. Fluorescence images of tumor tissues were captured by fluorescent microscopy. Alexa Fluor™ 488 dye was excited by 488 nm laser and the emission collecting window was 500-540 nm. The signal of DOX were excited by 488 nm laser and emission was collected at 580-630 nm.

COc1cccc2c1C(=O)c1c(O)c3c(c(O)c1C2=O)C[C@@](O)(C(=O)CO)C[C@@H]3O[C@H]1C[C@H](N)[C@H](O)[C@H](C)O1 [DOX, doxorubicin]
apoptosis in tumor section (TUNEL): exhibited apoptosis
